These results are taken from US20260327224A1, “SUBSTITUTED PYRIDOTRIAZOLE COMPOUND, AND PREPARATION METHOD THEREFOR AND USE THEREOF” (ORIGIANT PHARMACEUTICAL CO., LTD., priority 2023, published 2026).

In this experiment the test system is HT-29 cells (colon cancer cells). The experiment can be described thus: In vitro assay for protection of HT-29 cells from necroptosis (TNFα/Smac mimetic/Z-VAD-FMK, CCK-8). The class given is cell-based. The conditions noted are these: Homo sapiens, Protective Activity Against Necroptosis, TNFα/Smac mimetic/Z-VAD-FMK induced, 24 h. An excerpt:
Z′=1−3(SDmin+SDmax)/(AVEmax−AVEmin) • wherein: • Min is the positive control Data, and Max is the negative control DMSO Data. • SD is the standard deviation, and AVE is the average. In Vitro Assay for Protection of HT-29 Cells from Necroptosis:
1) Experimental Materials
DMEM medium was purchased from Gibco; penicillin-streptomycin was purchased from Hyclone; TNFα was purchased from Peprotech; Smac mimetic and Z-VAD-FMK were purchased from Selleck; and CCK-8 was purchased from Medchem Express.
HT-29 cells (colon cancer cells) were cultured in DMEM+10% FBS+penicillin/streptomycin. For the experiment, HT-29 cells in the logarithmic phase were collected and seeded into 96-well plates at a specific density (typically 8×10^3 cells/well for adherent cells). The cells were cultured overnight in an incubator at 37° C. with 5% CO2. On the following day, the test compound was diluted with culture medium to the corresponding concentrations and added into the 96-well plate, with 3 replicate wells for each sample. A solvent control group and a blank control group containing only culture medium were set simultaneously. The spiked cells were induced with a combination of TNFα/Smac mimetic/Z-VAD-FMK for 24 h. Subsequently, 10 μL of CCK8 solution was added to each well, and the cells were incubated in an incubator for 1-3 h. Absorbance was measured at […] using a microplate reader, and the cell necrosis protection rate of the drug was calculated using the following formula:
Cell necrosis protection rate=[(X−C0)/(C−C0)]×100% • where C, C0, and X represent the average absorbance values of the solvent control group, the blank control group, and the drug treatment group, respectively. Finally, a cell viability curve was fitted using Graphpad Prism 5.0 software, and the EC50 value of the test compound for inhibiting necroptosis was calculated.

Where only a bound is given, the exact number is not on record here.

For `C[C@H](NC(=O)c1cn(C)c2ccc(-c3ccn4nc(NC(=O)CN5CC[C@H](O)C5)nc4c3)cc12)c1ccc(F)cc1` [Compound 41], the concentration for a half-maximal effect (EC50) is under 1 nM.

For `CN(C)CC(=O)Nc1nc2cc(-c3ccc4c(c3)c(C(=O)N[C@H](c3ccc(F)cc3)C(F)F)cn4C)ccn2n1` [Compound 167], the EC50 was under 1 nM. As for `C[C@H](NC(=O)c1cn(C)c2ccc(-c3ccn4nc(NC(=O)Cn5cccn5)nc4c3)cc12)c1ccc(F)cc1` [Compound 58], the figure is under 1 nM; as for `C[C@H](NC(=O)c1cn(C)c2ccc(-c3ccn4nc(NC(=O)C5CC5F)nc4c3)cc12)C(C)(C)C` (stereo partly shown) [Compound 92], 100 to 1000 nM.

For the molecule `C[C@H](NC(=O)c1cn(C)c2ccc(-c3ccn4nc(NC(=O)CN5CCOC[C@H]5C)nc4c3)cc12)c1ccc(F)cc1` [Compound 72], the EC50 is under 1 nM.

Regarding `C[C@H](NC(=O)c1cn(C)c2ccc(-c3ccn4nc(NC(=O)CNC5CCOC5)nc4c3)cc12)c1ccc(F)cc1` (stereo partly shown) [Compound 77], the EC50 is under 1 nM. Take `CC(=O)Nc1nc2cc(-c3ccc4c(c3)c(C(=O)N[C@@H]3C[C@H]3c3ccc(F)c(F)c3)cn4C)ccn2n1` [Compound 125]: the EC50 lay in the range of 1000 to 10000 nM. Regarding `C[C@H](NC(=O)c1cn(C)c2ccc(-c3ccn4nc(NC(=O)CN5CCC[C@H](O)C5)nc4c3)cc12)c1ccc(F)cc1` [Compound 7], the 50% effective concentration (EC50) is under 1 nM. Next, `C[C@H](NC(=O)c1cn(C)c2ccc(-c3ccn4nc(NC(=O)CN5C6CCC5COC6)nc4c3)cc12)c1ccc(F)cc1` [Compound 73]: under 1 nM. As for `Cn1cc(C(=O)N2CCOC[C@@H]2c2ccc(F)cc2)c2cc(-c3ccn4nc(NC(=O)[C@H]5CCCO5)nc4c3)ccc21` [Compound 150], the figure is under 1 nM; as for `C[C@H](NC(=O)c1cn(C)c2ccc(-c3ccn4nc(NC(=O)N5CCOCC5)nc4c3)cc12)c1ccc(F)cc1` [Compound 116], under 1 nM; as for `Cn1cc(C(=O)N[C@@H](CF)c2ccc(F)cc2)c2cc(-c3ccn4nc(NC(=O)[C@H]5CCCO5)nc4c3)ccc21` [Compound 104], 1000 to 10000 nM.

For the molecule `C[C@H](NC(=O)c1cn(C)c2ccc(-c3ccn4nc(NC(=O)CN(C)C)nc4c3)cc12)c1ccc(F)cc1` [Compound 40], the EC50 was under 1 nM. As for `Cn1cc(C(=O)N[C@@H](CF)c2ccc(F)cc2)c2cc(-c3ccn4nc(NC(=O)CN5CCCCC5)nc4c3)ccc21` [Compound 96], the figure is under 1 nM; as for `C[C@H](NC(=O)c1cn(C)c2ccc(-c3ccn4nc(NC(=O)Cn5ccnc5)nc4c3)cc12)c1ccc(F)cc1` [Compound 48], 10 to 100 nM. As for `Cn1cc(C(=O)N2CCC[C@H]2c2ccc(F)cc2)c2cc(-c3ccn4nc(NC(=O)C5CCCO5)nc4c3)ccc21` (stereo partly shown) [Compound 154], the figure is under 1 nM. Next, `C[C@H](NC(=O)c1cn(C)c2ccc(-c3ccn4nc(NC(=O)CN5CC[C@@H](F)C5)nc4c3)cc12)c1ccc(F)cc1` [Compound 20]: under 1 nM; `CC[C@H](NC(=O)c1cn(C)c2ccc(-c3ccn4nc(NC(=O)CN5CCOCC5)nc4c3)cc12)c1ccc(F)cc1` [Compound 197]: under 1 nM; `Cn1cc(C(=O)N[C@@H](CF)c2ccc(F)cc2)c2cc(-c3ccn4nc(NC(=O)C5(C)CCC5)nc4c3)ccc21` [Compound 105]: 10 to 100 nM.

For `C[C@H](NC(=O)c1cn(C)c2ccc(-c3ccn4nc(NC(=O)CC5CCCCC5)nc4c3)cc12)c1ccc(F)cc1` [Compound 13], the concentration for a half-maximal effect (EC50) is under 1 nM. As for `Cn1nc(C(=O)N[C@@H](CF)c2ccc(F)cc2)c2cc(-c3ccn4nc(NC(=O)C5CCOC5)nc4c3)ccc21` (stereo partly shown) [Compound 188], the figure is under 1 nM; as for `CC(C(=O)Nc1cn(C)c2ccc(-c3ccn4nc(NC(=O)C5CC5)nc4c3)cc12)c1ccc(F)cc1` (stereo not shown) [Compound 177], 10 to 100 nM. For `CN1CCC(C(=O)Nc2nc3cc(-c4ccc5c(c4)c(C(=O)N[C@H](c4ccc(F)cc4)C(F)F)cn5C)ccn3n2)C1` (stereo partly shown) [Compound 168], the EC50 is under 1 nM. Next, `C[C@H](NC(=O)c1cn(C)c2ccc(-c3ccn4nc(NC(=O)CN5CCC(F)(F)CC5)nc4c3)cc12)c1ccc(Cl)cc1` [Compound 86]: under 1 nM; `COC1CCN(CC(=O)Nc2nc3cc(-c4ccc5c(c4)c(C(=O)N[C@@H](C)c4ccc(F)cc4)cn5C)ccn3n2)CC1` [Compound 24]: under 1 nM. Next, `C[C@H](NC(=O)c1cn(C)c2ccc(-c3ccn4nc(NC(=O)CN5CCOCC5)nc4c3)cc12)c1ccco1` [Compound 88]: 1 to 10 nM.

On to `Cn1cc(C(=O)N[C@@H](CF)c2ccc(F)cc2)c2cc(-c3ccn4nc(NC(=O)C5CC5)nc4c3)ccc21` [Compound 114], for which the concentration giving a half-maximal response (EC50) is under 1 nM. Consider `CN(C)CC(=O)Nc1nc2cc(-c3ccc4c(c3)c(C(=O)N[C@@H](CF)c3ccc(F)cc3)cn4C)ccn2n1` [Compound 101], for which the EC50 was under 1 nM. Next, `C[C@H](NC(=O)c1cn(C)c2ccc(-c3ccn4nc(NC(=O)CN5CCC(O)(O)CC5)nc4c3)cc12)c1ccc(F)cc1` [Compound 5]: under 1 nM; `CC(=O)Nc1nc2cc(-c3ccc4c(c3)c(C(=O)N[C@H]3CCCc5ccc(F)cc53)cn4C)ccn2n1` [Compound 145]: 1 to 10 nM.

With `CC(=O)Nc1nc2cc(-c3ccc4c(c3)c(C(=O)N[C@H]3CCc5cc(C#N)ccc53)cn4C)ccn2n1` [Compound 132], the concentration for a half-maximal effect (EC50) lay in the range of 100 to 1000 nM.

Consider `CCn1cc(C(=O)N[C@@H](C)c2ccc(F)cc2)c2cc(-c3ccn4nc(NC(=O)CN5CCOCC5)nc4c3)ccc21` [Compound 8], for which the half-maximal effective concentration (EC50) is under 1 nM. Next, `C[C@H](NC(=O)c1cn(C)c2ccc(-c3ccn4nc(NC(=O)CN(C)CCO)nc4c3)cc12)c1ccc(F)cc1` [Compound 74]: under 1 nM.

As to `C[C@@H](c1ccc(F)cc1)N(C)C(=O)c1cn(C)c2ccc(-c3ccn4nc(NC(=O)CN(C)C)nc4c3)cc12` [Compound 174], the EC50 was under 1 nM. `Cn1cc(C(=O)N[C@H]2CCCc3cc(F)ccc32)c2cc(-c3ccn4nc(NC(=O)CC#N)nc4c3)ccc21` [Compound 142]: the EC50 was in the range of 10 to 100 nM. Turning to `Cn1cc(C(=O)Nc2nc3cc(-c4ccc5c(c4)c(C(=O)N[C@@H](CF)c4cccc(F)c4)cn5C)ccn3n2)cn1` [Compound 155], the EC50 was under 1 nM. In the case of `C[C@H](NC(=O)c1cn(C)c2ccc(-c3ccn4nc(NC(=O)Cn5ccnn5)nc4c3)cc12)c1ccc(F)cc1` [Compound 52], the EC50 was under 1 nM.

With `Cn1cc(C(=O)Nc2nc3cc(-c4ccc5c(c4)c(C(=O)N[C@@H](CF)c4ccc(F)cc4)cn5C)ccn3n2)cn1` [Compound 111], the 50% effective concentration (EC50) is 1 to 10 nM. Next, `COCC(=O)Nc1nc2cc(-c3ccc4c(c3)c(C(=O)N[C@@H](CF)c3ccc(F)cc3)cn4C)ccn2n1` [Compound 97]: under 1 nM; `Cn1cc(C(=O)N[C@@H](CF)c2ccc(F)cc2)c2cc(-c3ccn4nc(NC(=O)C#N)nc4c3)ccc21` [Compound 102]: under 1 nM; `CN(C(=O)c1cn(C)c2ccc(-c3ccn4nc(NC(=O)C5CC5)nc4c3)cc12)[C@H]1CCc2cc(F)ccc21` [Compound 205]: 1 to 10 nM. With `CC(C(=O)Nc1cn(C)c2ccc(-c3ccn4nc(NC(=O)[C@H]5CCCO5)nc4c3)cc12)c1ccc(F)cc1` (stereo partly shown) [Compound 178], the concentration for a half-maximal effect (EC50) is 100 to 1000 nM. As for `CC(=O)N1CCN(CC(=O)Nc2nc3cc(-c4ccc5c(c4)c(C(=O)N[C@@H](C)c4ccc(F)cc4)cn5C)ccn3n2)CC1` [Compound 53], the figure is under 1 nM; as for `C[C@H](NC(=O)c1cn(C)c2ccc(-c3ccn4nc(NC(=O)CN5CCC(F)(F)CC5)nc4c3)cc12)c1ccc(F)cc1` [Compound 47], under 1 nM; as for `C[C@H](NC(=O)c1cn(C)c2ccc(-c3ccn4nc(NC(=O)CN5CCC[C@H]5C(=O)O)nc4c3)cc12)c1ccc(F)cc1` [Compound 37], 1 to 10 nM. As to `Cn1cc(C(=O)N2CC(F)(F)CC2c2ccc(F)cc2)c2cc(-c3ccn4nc(NC(=O)C5CCOC5)nc4c3)ccc21` (stereo not shown) [Compound 159], the concentration giving a half-maximal response (EC50) was under 1 nM. Next, `Cn1cc(C(=O)N[C@@H](CF)c2ccc(F)cc2)c2cc(-c3ccn4nc(NC(=O)CCl)nc4c3)ccc21` [Compound 94]: under 1 nM; `C[C@H](NC(=O)c1cn(C)c2ccc(-c3ccn4nc(NC(=O)CN5CCOC[C@@H]5C)nc4c3)cc12)c1ccc(Cl)cc1` [Compound 82]: under 1 nM. Next, `C[C@H](NC(=O)c1cn(C)c2ccc(-c3ccn4nc(NC(=O)CN5CCN(C(=O)C6CC6)CC5)nc4c3)cc12)c1ccc(F)cc1` [Compound 50]: under 1 nM. For `C[C@H](NC(=O)c1cn(C)c2ccc(-c3ccn4nc(NC(=O)CNCC5CC5)nc4c3)cc12)c1ccc(F)cc1` [Compound 66], the EC50 is under 1 nM. Consider `Cn1cc(C(=O)Nc2nc3cc(-c4ccc5c(c4)c(C4=NC(c6ccc(F)cc6)CO4)cn5C)ccn3n2)cn1` (stereo not shown) [Compound 213], for which the half-maximal effective concentration (EC50) lay within 10 to 100 nM.

As for `CC(c1ccc(F)cc1)n1cnc(-c2cn(C)c3ccc(-c4ccn5nc(NC(=O)C6CC6)nc5c4)cc23)n1` (stereo not shown) [Compound 210], the EC50 lay in the range of 100 to 1000 nM.
